Tests used:
[1] = tested on: human CD4+ and CD8+ T cells; assay: IFNγ secretion by anti-CD3/anti-CD28 stimulated T cells; format: cell-based; details: dose-titration, 96 hours
Protocol: Freshly isolated human CD4+ and CD8+ T cells were obtained from AllCells (Alameda, Calif., USA). Cells were spun down and resuspended in serum free Xvivo15 media (Lonza Walkersville, Inc., Chicago, Ill., USA) supplemented with 5 ng/mL […] and incubated overnight at 37° C. Cells were plated on anti-CD3 coated plates (5 μg/mL OKT3, eBioscience, Dallas, Tex., USA, overnight) with 2 μg/mL anti-CD28 (eBioscience, Dallas, Tex., USA). Cells are treated in replicate plates with a dose-titration of Compound 1 for 24 hours for IL-2 and 96 hours for IFNγ. IL-2 and IFNγ in the supernatant were measured using single- or multi-plex immunoassay (Mesoscale Discovery, Rockville, Md., USA). Jurkat T cell leukemia cells (clone E61 obtained from ATCC) plated on anti-CD3 coated plates were treated with a dose titration of Compound 1 for 24 hours. IL-2 in the supernatant was measured as described above.

MC38 MDOTS = assay: Live/dead (AO/PI) imaging of MC38 MDOTS in 3D microfluidic culture; format: cell-based, murine; details: Cmpd1 (1 μM) + αPD-1; did not reach significance vs single-agent PD-1
Protocol: Fresh tumor specimens (murine and human patients) were received in media (DMEM) on ice and minced in a 10 cm dish (on ice) using sterile forceps and scalpel. Minced tumor was resuspended in DMEM ([…], […] sodium pyruvate, 1:100 penicillin-streptomycin) (Corning CellGro, Manassas, Va.) +10% FBS (Gemini Bio-Products, West Sacramento, Calif.), 100 U/mL collagenase type IV (Life Technologies, Carlsbad, Calif.), and 15 mM HEPES (Life Technologies, Carlsbad, Calif.), except for CT26 tumors that were prepared in RPMI. Samples were pelleted and resuspended in 10-20 mL media. Red blood cells were removed from visibly bloody samples using RBC Lysis Buffer (Boston Bio-Products, Ashland, Mass.). […]
Dual labeling was performed by loading microfluidic device with Nexcelom ViaStain™ AO/PI Staining Solution (Nexcelom, CS2-0106). Following incubation with the dyes (20 minutes at room temperature in the dark), images were captured on a Nikon Eclipse 80i fluorescence microscope equipped with Z-stack (Prior) and CoolSNAP CCD camera (Roper Scientific). […] Live and dead cell quantitation was performed by measuring total cell area of each dye. […]

CT26 allograft = assay: CT26 allograft, Compound 1 and anti-PD-L1 combination in vivo; set-up: species or system mouse; details: Compound 1 40 mg/kg oral gavage daily + anti-PD-L1 10 mg/kg every 5 days
Protocol: Combination studies were performed by vivoPharm (Hummelstown, Pa., USA). All procedures used in the performance of these studies were carried out in accordance with vivoPharm's Standard Operating Procedures, with particular reference to US_SOPvP_EF0314 “General Procedures for Efficacy Studies.” CT26 colon carcinoma cells (1×10^6 cells/mouse in 100 μL, passage 2-3) were re-suspended in serum-free DMEM and implanted in the upper right flank of 11-12 week old female Balb/c mice (Charles River Laboratories). Mice were randomized into four groups of 10 using a matched pair distribution method based on tumor size for CT26. Treatment was initiated 12 days post-inoculation with mean tumor volume at start of dosing of 125.85 mm^3. Vehicle or Compound 1 (40 mg/kg) was administered by oral gavage daily for 26 days and isotype control or a reverse chimera anti-PD-L1 cloned from literature reports (e.g., Deng, R. et al. MAbs (2016), the content of which is incorporated herein by reference in entirety) and placed into a mouse IgG1 framework (10 mg/kg) was administered every 5 days for a total of six doses. Investigators were not blinded to treatment groups. […] Mice were sacrificed on Day 13 and lung metastases were quantified (small ≤1 mm, medium >1 mm and ≤3 mm, large >3 mm). No large lung metastases were detected.

N#Cc1cc(-c2ncnc(Nc3ccc(N4CCN(C5COC5)CC4)cc3)n2)ccc1OC1CCOCC1 [Compound 1, 5-(4-((4-(4-(oxetan-3-yl)piperazin-1-yl)phenyl)amino)-1,3,5-triazin-2-yl)-2-((tetrahydro-2H-pyran-4-yl)oxy)benzonitrile]
secretion of IFN-γ from purified CD4+ and CD8+ T cells [1]: enhanced secretion
ex vivo killing of MC38 MDOTS, combination treatment (MC38 MDOTS): enhanced ex vivo killing
survival, CT26 allograft, combination vs Cmpd1 or anti-PD-L1 alone (CT26 allograft): longer survival
tumour control, CT26 allograft, combination vs Cmpd1 or anti-PD-L1 alone (CT26 allograft): greater tumour control

From US11572590B2, “Methods for evaluating tumor cell spheroids using 3D microfluidic cell culture device” (Dana-Farber Cancer Institute, Inc., priority 2017, dated 2023)
